Patent US20250147039A1, “Compounds for complexation of rare earth elements and/or s-, p-, d- block metals, their coordination compounds, peptide conjugates, method of their preparation and use thereof” (USTAV ORGANICKE CHEMIE A BIOCHEMIE AV CR V.V.I., priority 2021, published 2025)

Experiments:
[1] = pH dependent formation of 1,5- and 1,4-cz-Lig isomers from Lig (pH dependent click-zip) (Chart 13); type: physicochemical; conditions: B: 1 day at 80° C.
[2] = Alkali metal dependent formation of 1,5-cz-Lig and 1,4-cz-Lig isomers from Lig at pH 10.2 (Chart 14); type: physicochemical; conditions: Borate/(M^I)2CO3 buffer pH 10.2
[3] = Formation of 1,5-cz-[Ln(Lig)] from Lig and Ln^III ions (metal dependent click-zip), MOPS/NaOH buffer pH 7.0, analytical HPLC (Charts 1, 2); conditions: MOPS/NaOH buffer pH 7.0
[4] = B: 1 day at 80° C., visible analyte free precipitate

C#Cc1cccc(CN2CCN(CC(=O)O)CCN(Cc3cc(-c4ccccc4)cc(CN=[N+]=[N-])n3)CCN(CC(=O)O)CC2)n1 [TD647]
conversion to 1,4-cz-Lig isomer ([1]; pH 2.2, 50 mM aq. buffer): 6%
conversion to 1,5-cz-Lig isomer ([1]; pH 2.2, 50 mM aq. buffer): 88%
conversion to 1,4-cz-Lig isomer ([1]; pH 3.0, 50 mM aq. buffer): 6%
conversion to 1,5-cz-Lig isomer ([1]; pH 3.0, 50 mM aq. buffer): 69%
conversion to 1,4-cz-Lig isomer ([1]; pH 3.8, 50 mM aq. buffer): 6%
conversion to 1,5-cz-Lig isomer ([1]; pH 3.8, 50 mM aq. buffer): 22%
conversion to 1,4-cz-Lig isomer ([1]; pH 4.6, 50 mM aq. buffer): 5%
conversion to 1,5-cz-Lig isomer ([1]; pH 4.6, 50 mM aq. buffer): 13%
conversion to 1,4-cz-Lig isomer ([1]; pH 5.4, 50 mM aq. buffer): 6%
conversion to 1,5-cz-Lig isomer ([1]; pH 5.4, 50 mM aq. buffer): 12%
conversion to 1,4-cz-Lig isomer ([1]; pH 6.2, 50 mM aq. buffer): 12%
conversion to 1,5-cz-Lig isomer ([1]; pH 6.2, 50 mM aq. buffer): 11%
conversion to 1,4-cz-Lig isomer ([1]; pH 7.0, 50 mM aq. buffer): 23%
conversion to 1,5-cz-Lig isomer ([1]; pH 7.0, 50 mM aq. buffer): 19%
conversion to 1,4-cz-Lig isomer ([1]; pH 8.6, 50 mM aq. buffer): 32%
conversion to 1,5-cz-Lig isomer ([1]; pH 8.6, 50 mM aq. buffer): 26%
conversion to 1,4-cz-Lig isomer ([1]; pH 9.4, 50 mM aq. buffer): 17%
conversion to 1,5-cz-Lig isomer ([1]; pH 9.4, 50 mM aq. buffer): 60%
conversion to 1,4-cz-Lig isomer ([1]; pH 10.2, 50 mM aq. buffer): 5%
conversion to 1,5-cz-Lig isomer ([1]; pH 10.2, 50 mM aq. buffer): 80%
conversion to 1,4-cz-Lig isomer, Cs^I ([2]; A: 1 hour at 80° C.): 2%
conversion to 1,4-cz-Lig isomer, K^I ([2]; A: 1 hour at 80° C.): 2%
conversion to 1,4-cz-Lig isomer, Li^I ([2]; A: 1 hour at 80° C.): 0%
conversion to 1,4-cz-Lig isomer, Na^I ([2]; A: 1 hour at 80° C.): 1%
conversion to 1,4-cz-Lig isomer, Rb^I ([2]; A: 1 hour at 80° C.): 2%
conversion to 1,5-cz-Lig isomer, Cs^I ([2]; A: 1 hour at 80° C.): 0%
conversion to 1,5-cz-Lig isomer, K^I ([2]; A: 1 hour at 80° C.): 1%
conversion to 1,5-cz-Lig isomer, Li^I ([2]; A: 1 hour at 80° C.): 0%
conversion to 1,5-cz-Lig isomer, Na^I ([2]; A: 1 hour at 80° C.): 15%
conversion to 1,5-cz-Lig isomer, Rb^I ([2]; A: 1 hour at 80° C.): 0%
conversion to 1,4-cz-Lig isomer, Cs^I ([2]; B: 1 day at 80° C.): 39%
conversion to 1,4-cz-Lig isomer, K^I ([2]; B: 1 day at 80° C.): 40%
conversion to 1,4-cz-Lig isomer, Na^I ([2]; B: 1 day at 80° C.): 1%
conversion to 1,4-cz-Lig isomer, Rb^I ([2]; B: 1 day at 80° C.): 41%
conversion to 1,5-cz-Lig isomer, Cs^I ([2]; B: 1 day at 80° C.): 7%
conversion to 1,5-cz-Lig isomer, K^I ([2]; B: 1 day at 80° C.): 10%
conversion to 1,5-cz-Lig isomer, Na^I ([2]; B: 1 day at 80° C.): 85%
conversion to 1,5-cz-Lig isomer, Rb^I ([2]; B: 1 day at 80° C.): 6%
conversion to 1,4-cz-Lig isomer, Li^I [2, 4]: 2%
conversion to 1,5-cz-Lig isomer, Li^I [2, 4]: 9%
conversion to 1,5-cz-[Ln(Lig)], Ce^III ([3]; after 1 week at 80° C.): 50%
conversion to 1,5-cz-[Ln(Lig)], Ce^III ([3]; after 1 hour at 80° C.): 1%
conversion to 1,5-cz-[Ln(Lig)], Dy^III ([3]; after 1 week at 80° C.): 92%
conversion to 1,5-cz-[Ln(Lig)], Dy^III ([3]; after 1 hour at 80° C.): 13%
conversion to 1,5-cz-[Ln(Lig)], Er^III ([3]; after 1 week at 80° C.): 95%
conversion to 1,5-cz-[Ln(Lig)], Er^III ([3]; after 1 hour at 80° C.): 32%
conversion to 1,5-cz-[Ln(Lig)], Eu^III ([3]; after 1 week at 80° C.): 89%
conversion to 1,5-cz-[Ln(Lig)], Eu^III ([3]; after 1 hour at 80° C.): 4%
conversion to 1,5-cz-[Ln(Lig)], Gd^III ([3]; after 1 week at 80° C.): 92%
conversion to 1,5-cz-[Ln(Lig)], Gd^III ([3]; after 1 hour at 80° C.): 5%
conversion to 1,5-cz-[Ln(Lig)], Ho^III ([3]; after 1 week at 80° C.): 95%
conversion to 1,5-cz-[Ln(Lig)], Ho^III ([3]; after 1 hour at 80° C.): 21%
conversion to 1,5-cz-[Ln(Lig)], La^III ([3]; after 1 week at 80° C.): 49%
conversion to 1,5-cz-[Ln(Lig)], La^III ([3]; after 1 hour at 80° C.): 1%
conversion to 1,5-cz-[Ln(Lig)], Lu^III ([3]; after 1 week at 80° C.): 96%
conversion to 1,5-cz-[Ln(Lig)], Lu^III ([3]; after 1 hour at 80° C.): 64%
conversion to 1,5-cz-[Ln(Lig)], Nd^III ([3]; after 1 week at 80° C.): 79%
conversion to 1,5-cz-[Ln(Lig)], Nd^III ([3]; after 1 hour at 80° C.): 1%
conversion to 1,5-cz-[Ln(Lig)], Pr^III ([3]; after 1 week at 80° C.): 69%
conversion to 1,5-cz-[Ln(Lig)], Pr^III ([3]; after 1 hour at 80° C.): 1%
conversion to 1,5-cz-[Ln(Lig)], Sm^III ([3]; after 1 week at 80° C.): 86%
conversion to 1,5-cz-[Ln(Lig)], Sm^III ([3]; after 1 hour at 80° C.): 3%
conversion to 1,5-cz-[Ln(Lig)], Tb^III ([3]; after 1 week at 80° C.): 91%
conversion to 1,5-cz-[Ln(Lig)], Tb^III ([3]; after 1 hour at 80° C.): 9%
conversion to 1,5-cz-[Ln(Lig)], Tm^III ([3]; after 1 week at 80° C.): 96%
conversion to 1,5-cz-[Ln(Lig)], Tm^III ([3]; after 1 hour at 80° C.): 48%
conversion to 1,5-cz-[Ln(Lig)], Yb^III ([3]; after 1 week at 80° C.): 96%
conversion to 1,5-cz-[Ln(Lig)], Yb^III ([3]; after 1 hour at 80° C.): 61%
